Values after ≈ are worked out from the molar mass of the structure shown. Read-outs that look alike come from different tables or passages of the source.
Key:
FeSSIF solubility assay = assay type: physicochemical; conditions: pH 5 acetate buffer, 37° C.; for solubility thermodynamic at 24 h: fed state simulated intestinal fluid (FeSSIF), thermodynamic from solid
Method in brief: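 FeSSIF (pH 5 acetate buffer, 1 mL) was added to 1.0 mg solid compound and shaken at 650 rpm and 37 °C for 24 h. After filtration, dissolved compound was quantified by LC-UV against a 250 μM calibration standard.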

HCT-116 cells = assay: HCT-116 CellTiter-Glo 3D cell proliferation assay; assay type: cell-based; conditions: Homo sapiens
Experimental: HCT-116 CellTiter-Glo 3D Cell Proliferation Assay
The human HCT-116 colorectal carcinoma cell line (ATCC CCL-247) endogenously expresses the KRAS^G13D mutation, which leads to enhanced survival and proliferative signaling. […] On the first day, HCT-116 cells were harvested, resuspended in growth medium (McCoys5A with Glutamax (Life Technologies 36600021) with 10% heat-inactivated fetal bovine serum (Sigma F9665)), and counted. Cells were plated in 100 μl per well in each well of a Corning 7007 96-well clear round bottom Ultra-Low Attachment plate (VWR 444-1020) to a final density of 1000 cells per well. Cells were seeded for pre- and post-treatment readouts. The cells were then incubated at 37° C. and 5% CO2 for 3 days (72 hours) to allow spheroid formation. After 72 hours, the plate seeded for a pre-treatment read was removed from the incubator to allow equilibration to room temperature for 30 minutes, before CellTitre-Glo® reagent was added to each well. The plates were incubated at room temperature for 5 minutes shaking at 300 rpm, followed by an incubation of 25 minutes on the benchtop before being read on the Envision reader (Perkin Elmer) as described below. On the same day, the cells plated for the post-treatment readout were dosed with compounds to produce a 9-point dose response, where the top concentration was 15 μM and following concentrations were at 1/2 log dilution intervals. These cells were subsequently incubated at 37° C. and 5% CO2 for another 4 days (96 hours). After 4 days, the plate was removed from the incubator to allow equilibration to room temperature for 30 minutes and treated with CellTitre Glo® reagent as stated above. […] The CellTitre Glo® reagent lyses the cells and contains luciferin and a luciferase (Ultra-Glo™ Recombinant Luciferase), which in the presence of ATP and oxygen can produce bioluminescence from luciferin. Therefore, plates were read on an EnVision reader (Perkin Elmer) and luminescence signals were recorded. Cell proliferation was determined on 4 days after dosing relative to the pre-treatment read. All data were analyzed using the Dotmatics or GraphPad Prism software packages. Inhibition of proliferation was assessed by determination of the GI50 value, which was defined as the concentration of compound required to decrease the level of cell proliferation by 50% when compared to DMSO control.

WiDr cells = assay: WiDr CellTiter-Glo 3D cell proliferation assay; assay type: cell-based; conditions: Homo sapiens, read-out: 3D WiDr pGI50 (converted)
[1] = test system: constitutive ERK phosphorylation in WiDr cells; assay: WiDr AlphaLISA SureFire pERK1/2 cellular assay; assay type: cell-based, human; conditions: for IC50: Homo sapiens, read-out: pERK WiDr (2 hr) Abs pIC50 (converted)
Experimental: The human HCT-116 colorectal carcinoma cell line (ATCC CCL-247) endogenously expresses the KRAS^G13D mutation, which leads to constitutive activation of the MAP kinase pathway and phosphorylation of ERK. […] Assay read outs took place 2 or 24 hours after dosing with compounds. On the first day, HCT-116 cells were harvested, resuspended in growth medium (McCoys5A with Glutamax (Life Technologies 36600021) and 10% heat-inactivated fetal bovine serum (Sigma F9665)), and counted. Cells were plated in 100 μl per well in each well of a 96-well culture dish (Sigma CLS3598) to a final density of 30,000 (2 hr read) or 15,000 (24 hr read) cells per well and incubated over night at 37° C. and 5% CO2. On day 2, the growth medium was exchanged for dosing medium (McCoys5A with Glutamax (Life Technologies 36600021) and 1% heat-inactivated fetal bovine serum (Sigma F9665)) and the cells were dosed with compounds to produce a 10-point dose response, where the top concentration was 1 μM and subsequent concentrations were at 1/3 log dilution intervals. A matched DMSO control was included. The cells were subsequently incubated for either 2 or 24 hours at 37° C. and 5% CO2. After incubation, media was removed and the cells were incubated with lysis buffer containing phosphatase inhibitors for 15 minutes at room temperature. Cell lysates were transferred to a 12 area 96 well white Optiplate™ (Perkin Elmer 6005569) and incubated with anti-mouse IgG acceptor beads, a biotinylated anti-ERK1/2 rabbit antibody recognizing both phosphorylated and non-phosphorylated ERK1/2, a mouse antibody targeted to the Thr202/Tyr204 epitope and recognizing phosphorylated ERK proteins only, and streptavidin-coated donor beads. The biotinylated antibody binds to the streptavidin-coated donor beads and the phopsho-ERK1/2 antibody binds to the acceptor beads. Plates were read on an EnVision reader (Perkin Elmer) and excitation of the beads at 680 nm with a laser induced the release of singlet oxygen molecules from the donor beads that trigger energy transfer to the acceptor beads in close proximity, producing a signal that can be measured at […]. Both antibodies bound to phosphorylated ERK proteins, bringing the donor and acceptor beads into close proximity. All data were analyzed using the Dotmatics or GraphPad Prism software packages. Inhibition of ERK phosphorylation was assessed by determination of the absolute IC50 value, which is defined as the concentration of compound required to decrease the level of phosphorylated ERK proteins by 50% when compared to DMSO control.
WiDr AlphaLISA SureFire pERK1/2 Cellular Assay
The human WiDr colorectal adenocarcinoma cell line (ATCC CCL-218) endogenously expresses the BRAF^V600E mutation, which leads to constitutive activation of the MAP kinase pathway and phosphorylation of ERK. […] The main procedure is essentially the same as for HCT-116 cells (above), with the following adjustments to the growth medium (Eagle's Minimum Essential Medium (Sigma M2279) with 1× Glutamax (Life Technologies 35050038), 1× Sodium-Pyruvate (Sigma S8636), and 10% heat-inactivated fetal bovine serum (Sigma F9665)), the dosing medium (Eagle's Minimum Essential Medium (Sigma M2279) with 1× Glutamax (Life Technologies 35050038), 1× Sodium-Pyruvate (Sigma S8636), and 1% heat-inactivated fetal bovine serum (Sigma F9665)), and the seeding densities (2 hr: 50,000 cells per well; 24 hr: 35,000 cells per well). Moreover, the compounds were dosed in 1/2 log dilution intervals with the top concentration of 10 μM.

[2] = HCT-116, HCT116 cells, 3D proliferation, read-out: 3D HCT116 pGI50 (converted)

SMILES	solubility thermodynamic at 24 h (FeSSIF solubility assay; read-out: FESSIF Sol)	GI50 (HCT-116 cells; [2])	GI50 (WiDr cells; WiDr cells, 3D proliferation)	IC50 ([1]; WiDr cells, 2 hr, Abs)	solubility thermodynamic at 24 h (FeSSIF solubility assay; read-out: Sol (FESSIF))	FESSIF Sol (FeSSIF solubility assay; 24 h)	IC50 ([1]; WiDr cells, 2 hr, absolute IC50)	pERK WiDr (2 hr) Abs pIC50 ([1]; WiDr cells, 2 hr, Abs)	GI50 (HCT-116 cells; HCT-116, read-out: 3D HCT116 pGI50 (converted))	GI50 (WiDr cells; WiDr)	IC50 ([1]; WiDr, 2 h)
CCn1nc(C)cc1-c1c[nH]c(C2COc3ccc(Oc4ccnc5c4CCC(=O)N5)cc3C2)n1 (stereo not shown) [Compound 124, 5-[3-[4-(2-ethyl-5-methyl-pyrazol-3-yl)-1H-imidazol-2-yl]chroman-6-yl]oxy-3,4-dihydro-1H-1,8-naphthyridin-2-one]	3 µg/mL (≈ 6.38 µM)	724 nM	1450 nM	661 nM							
Cc1cc(-c2c[nH]c(C3COc4ccc(Oc5ccnc6c5CCC(=O)N6)cc4C3)n2)n(C)n1 (stereo not shown) [Compound 106, 5-[3-[4-(2,5-dimethylpyrazol-3-yl)-1H-imidazol-2-yl]chroman-6-yl]oxy-3,4-dihydro-1H-1,8-naphthyridin-2-one]	28.1 µg/mL (≈ 61.6 µM)	437 nM	1550 nM	589 nM							
O=C1CCc2c(Oc3ccc4c(c3)CC(c3nc(-c5ccnc(C(F)(F)F)c5)c[nH]3)CO4)ccnc2N1 (stereo not shown) [Compound 8, 5-[3-[4-[2-(trifluoromethyl)-4-pyridyl]-1H-imidazol-2-yl]chroman-6-yl]oxy-3,4-dihydro-1H-1,8-naphthyridin-2-one]		138 nM	191 nM		18.5 µg/mL (≈ 36.5 µM)	18.5 mg/L	178 nM	6.75			
O=C1CCc2c(Oc3ccc4c(c3)CC(c3nc(-c5ccnc(C(F)F)c5)c[nH]3)CO4)ccnc2N1 (stereo not shown) [Compound 101, 5-[3-[4-[2-(difluoromethyl)-4-pyridyl]-1H-imidazol-2-yl]chroman-6-yl]oxy-3,4-dihydro-1H-1,8-naphthyridin-2-one]	5.7 µg/mL (≈ 11.6 µM)	85.1 nM	309 nM	182 nM							
O=C(Nc1cc(Oc2ccc3c(c2)CC(c2nc(-c4ccc(F)cc4)c[nH]2)CO3)ccn1)C1CC1 (stereo not shown) [Compound 155, N-[4-[3-[4-(4-fluorophenyl)-1H-imidazol-2-yl]chroman-6-yl]oxy-2-pyridyl]cyclopropanecarboxamide]	124 µg/mL (≈ 263 µM)	100 nM	631 nM	102 nM							
O=C(Cn1ccnc1)Nc1cc(Oc2ccc3c(c2)CC(c2nc(-c4ccccc4)c[nH]2)CO3)ccn1 (stereo not shown) [Compound 144]	318 µg/mL (≈ 645 µM)	100 nM	380 nM	95.5 nM							
O=C(Cn1cncn1)Nc1cc(Oc2ccc3c(c2)CC(c2nc(-c4ccccc4)c[nH]2)CO3)ccn1 (stereo not shown) [Compound 154]	171 µg/mL (≈ 346 µM)	61.7 nM	661 nM	33.1 nM							
O=C(CN1CCOCC1)Nc1cc(Oc2ccc3c(c2)CC(c2nc(-c4ccccc4)c[nH]2)CO3)ccn1 (stereo not shown) [Compound 149]	200 µg/mL (≈ 391 µM)	851 nM	2240 nM	933 nM							
O=C(Nc1cc(Oc2ccc3c(c2)CC(c2nc(-c4ccccc4)c[nH]2)CO3)ncn1)C1CC1 (stereo not shown) [Compound 151, N-[6-[3-(4-phenyl-1H-imidazol-2-yl)chroman-6-yl]oxypyrimidin-4-yl]cyclopropanecarboxamide]	86.6 µg/mL (≈ 191 µM)								380 nM	1150 nM	224 nM
CC(C)(C)CCc1c[nH]c(C2COc3ccc(Oc4ccnc5c4CCC(=O)N5)cc3C2)n1 (stereo not shown) [Compound 115, 5-[3-[4-(3,3-dimethylbutyl)-1H-imidazol-2-yl]chroman-6-yl]oxy-3,4-dihydro-1H-1,8-naphthyridin-2-one]	129 µg/mL (≈ 289 µM)	67.6 nM	38 nM	8.13 nM							
CC(=O)Nc1cc(Oc2ccc3c(c2)CC(c2nc(-c4ccccc4)c[nH]2)CO3)ccn1 (stereo not shown) [Compound 156, N-[4-[3-(4-phenyl-1H-imidazol-2-yl)chroman-6-yl]oxy-2-pyridyl]acetamide]	296 µg/mL (≈ 695 µM)	89.1 nM	269 nM	132 nM							
O=C1CCc2c(Oc3ccc4c(c3)CC(c3nc(-c5cncc(C(F)F)c5)c[nH]3)CO4)ccnc2N1 (stereo not shown) [Compound 105, 5-[3-[4-[5-(difluoromethyl)-3-pyridyl]-1H-imidazol-2-yl]chroman-6-yl]oxy-3,4-dihydro-1H-1,8-naphthyridin-2-one]	8.6 µg/mL (≈ 17.6 µM)	245 nM	603 nM	269 nM							
CCc1cc(-c2c[nH]c(C3COc4ccc(Oc5ccnc6c5CCC(=O)N6)cc4C3)n2)n(C)n1 (stereo not shown) [Compound 111]	70 µg/mL (≈ 149 µM)	316 nM	1020 nM	324 nM							
Cc1ccc(-c2c[nH]c(C3COc4ccc(Oc5ccnc6c5CCC(=O)N6)cc4C3)n2)s1 (stereo not shown) [Compound 110]	8.5 µg/mL (≈ 18.5 µM)	70.8 nM	200 nM	70.8 nM							

— patent publication US12304912B2, “Fused bicyclic RAF inhibitors and methods for use thereof” (Jazz Pharmaceuticals Ireland Limited, priority 2020, dated 2025)
